Laboratory results as given in patent US20170188607A1, “SOLUBILIZATION OF A SWEET MODULATOR AND FLAVOR” (Firmenich SA, priority 2014, published 2017).

Assay: Amount of compound remaining in solution in acidic syrup kept at 3° C., measured by UV spectroscopy as a function of time
Format: physicochemical
Description: A concentrated solution 1 of (S)-1-(3-(((4-amino-2,2-dioxido-1H-benzo[c][1,2,6]thiadiazin-5-yl)oxy)methyl)piperidin-1-yl)-3-methylbutan-1-one at 0.3% (w/w) (3000 ppm) was prepared in water. pH was adjusted to 11 using NaOH to form (S)-1-(3-(((4-amino-2,2-dioxido-1H-benzo[c][1,2,6]thiadiazin-5-yl)oxy)methyl)piperidin-1-yl)-3-methylbutan-1-one sodium salt and obtain an homogeneous solution. Next, a syrup was prepared by mixing an aqueous solution of High Fructose Corn Syrup (HFCS), citric acid and deionized water. The final syrup contained 34% fructose, 0.68% citric acid, 0.1% sodium citrate and 65.22% water, with a pH of 2. […] The sample was kept at 3° C. and the amount of (S)-1-(3-(((4-amino-2,2-dioxido-1H-benzo[c][1,2,6]thiadiazin-5-yl)oxy)methyl)piperidin-1-yl)-3-methylbutan-1-one was measured by UV spectroscopy as a function of time. The amount of (S)-1-(3-(((4-amino-2,2-dioxido-1H-benzo[c][1,2,6]thiadiazin-5-yl)oxy)methyl)piperidin-1-yl)-3-methylbutan-1-one was reduced to 28 ppm after 1 week and first crystals were visually observed. After 12 weeks 1.7 ppm of (S)-1-(3-(((4-amino-2,2-dioxido-1H-benzo[c][1,2,6]thiadiazin-5-yl)oxy)methyl)piperidin-1-yl)-3-methylbutan-1-one remained in solution.
(§1) A concentrated solution 1 of (S)-1-(3-(((4-amino-2,2-dioxido-1H-benzo[c][1,2,6]thiadiazin-5-yl)oxy)methyl)piperidin-1-yl)-3-methylbutan-1-one at 0.3% (w/w) (3000 ppm) was prepared in water. pH was adjusted to 11 using NaOH to form (S)-1-(3-(((4-amino-2,2-dioxido-1H-benzo[c][1,2,6]thiadiazin-5-yl)oxy)methyl)piperidin-1-yl)-3-methylbutan-1-one sodium salt and obtain an homogeneous solution. Next, a syrup was prepared by mixing an aqueous solution of HFCS, citric acid, PVP 55k and deionized water. The final syrup contained 34% fructose, 0.68% citric acid, 0.1% sodium citrate, 0.03% PVP and 65.19% water. […] The sample was kept at 3° C. and the amount of (S)-1-(3-(((4-amino-2,2-dioxido-1H-benzo[c][1,2,6]thiadiazin-5-yl)oxy)methyl)piperidin-1-yl)-3-methylbutan-1-one was measured by UV spectroscopy as a function of time. The amount of (S)-1-(3-(((4-amino-2,2-dioxido-1H-benzo[c][1,2,6]thiadiazin-5-yl)oxy)methyl)piperidin-1-yl)-3-methylbutan-1-one was maintained at 30 ppm for 4 weeks, before a slight decrease and appearance of few crystals. After 12 weeks 9.6 ppm of (S)-1-(3-(((4-amino-2,2-dioxido-1H-benzo[c][1,2,6]thiadiazin-5-yl)oxy)methyl)piperidin-1-yl)-3-methylbutan-1-one remained in solution.
as §1, with “PVP 55k, maltodextrin (18DE)” for “PVP 55k”, “fructose, 15% maltodextrin,” for “fructose,”, “for 8” for “for 4”, “crystals.” for “crystals. After 12 weeks 9.6 ppm of (S)-1-(3-(((4-amino-2,2-dioxido-1H-benzo[c][1,2,6]thiadiazin-5-yl)oxy)methyl)piperidin-1-yl)-3-methylbutan-1-one remained in solution.”
A concentrated solution 1 of (S)-1-(3-(((4-amino-2,2-dioxido-1H-benzo[c][1,2,6]thiadiazin-5-yl)oxy)methyl)piperidin-1-yl)-3-methylbutan-1-one at 0.3% (w/w) (3000 ppm) was prepared in water. pH was adjusted to 11 using NaOH to form (S)-1-(3-(((4-amino-2,2-dioxido-1H-benzo[c][1,2,6]thiadiazin-5-yl)oxy)methyl)piperidin-1-yl)-3-methylbutan-1-one sodium salt and obtain an homogeneous solution. […]

amount remaining in solution (Example 1 (comparative): 30 ppm start, syrup 34 Brix (34% fructose, 0.68% citric acid, 0.1% sodium citrate), pH 2, no polymer, 3° C., after 1 week, first crystals visually observed): 28 ppm
amount remaining in solution (Example 1 (comparative): 30 ppm start, syrup 34 Brix, pH 2, no polymer, 3° C., after 12 weeks): 1.7 ppm
amount remaining in solution (Example 2: 30 ppm start, syrup 34 Brix with 0.03% PVP 55k, 3° C., after 12 weeks): 9.6 ppm
amount maintained in solution (Example 2: 30 ppm start, syrup 34 Brix with 0.03% PVP 55k, 3° C., maintained for 4 weeks, then slight decrease and few crystals): 30 ppm
amount remaining in solution (Example 3: 30 ppm start, syrup 34 Brix with 0.03% PVP 55k and 15% maltodextrin (18DE), 3° C., after 12 weeks): 27.3 ppm
amount maintained in solution (Example 3: 30 ppm start, syrup 34 Brix with 0.03% PVP 55k and 15% maltodextrin (18DE), 3° C., maintained for 8 weeks, then slight decrease and few crystals): 30 ppm
amount maintained in solution (Example 4: 30 ppm start, syrup 34 Brix with 0.03% HPMC (22 kDa), 3° C., maintained for 12 weeks): 30 ppm
amount remaining in solution (Example 10 (comparative): 18 ppm start, syrup 45 Brix, pH 2, no polymer, 3° C., after 7 weeks, first crystals visually observed): 15.8 ppm
amount remaining in solution (Example 10 (comparative): 18 ppm start, syrup 45 Brix, pH 2, no polymer, 3° C., after 14 weeks): 3.6 ppm
amount maintained in solution (Example 11: 18 ppm start, syrup 45 Brix with 0.0009% HPMC (Methocel K99), pH 2, 3° C., maintained for 17 weeks): 18 ppm
amount maintained in solution (Example 12: 18 ppm start, syrup 45 Brix with 0.0009% CMC, pH 2, 3° C., maintained for 16 weeks): 18 ppm
amount remaining in solution (Example 13 (comparative): 18 ppm start, syrup 20 Brix, pH 2, no polymer, 3° C., after 3.5 weeks, crystals visually observed): 14 ppm
amount remaining in solution (Example 13 (comparative): 18 ppm start, syrup 20 Brix, pH 2, no polymer, 3° C., after 18 weeks): 4 ppm
amount maintained in solution (Example 14: 18 ppm start, syrup 20 Brix with 0.0009% HPMC (Methocel K99), pH 2, 3° C., maintained for 18 weeks): 18 ppm
SMILES: CC(C)CC(=O)N1CCC[C@H](COc2cccc3c2C(N)=NS(=O)(=O)N3)C1 [(S)-1-(3-(((4-amino-2,2-dioxido-1H-benzo[c][1,2,6]thiadiazin-5-yl)oxy)methyl)piperidin-1-yl)-3-methylbutan-1-one]
